{"source": "patent US20210308196A1", "about": "“COMPOSITIONS AND METHODS TO PROMOTE HOST DEFENSE AND STIMULATE, EXPAND, AND/OR RESET T CELL REPERTOIRES” (EVOLVE BIOSYSTEMS, INC., priority 2018, published 2021)", "key": {"[1]": {"system": "human colonic mucin glycans", "experiment": "Fecal glycome and colonic mucin-derived O-glycans (nano-HPLC-Chip-TOF MS)", "format": "in vivo", "excerpt": "A library of known mucin-specific O-glycans was compiled and used to query untargeted mass spectra of fecal samples.\nAnalysis of spectra obtained with nano-high performance liquid chromatography-chip/time-of flight mass spectrometry (nano-HPLC-Chip-TOF MS). […] Briefly, the HPLC system used was an Agilent 1200 series unit with a microfluidic chip, which was coupled to an Agilent 6220 series TOF mass spectrometer via chip cube interface. The capillary pump on the chromatography unit loaded the sample onto the 40-nL enrichment column at a flow rate of 4.0 μL/min with a 1-μL injection volume. A nano pump was used for analyte separation on the analytical column, which was […] and packed with porous graphitized carbon. Separation was accomplished using a binary gradient of aqueous solvent A (3% acetonitrile (ACN)/water (v/v) in 0.1% formic acid (FA)) and organic solvent B (90% ACN/water (v/v) in 0.1% FA) using a method developed for HMO separation. The sample was introduced into the TOF mass spectrometer via electrospray ionization, which was tuned and calibrated using a dual nebulizer electrospray source with calibrant ions ranging from m/z 118.086 to 2721.895, and data were collected in the positive mode. These untargeted spectra were reanalyzed in the present study.\nGlycan data analysis. The untargeted mass spectra were collected (as above) and analyzed using Agilent MassHunter Work station Data Acquisition version B.02.01 on the nanoHPLC-chip/TOF (Frese et al 2017). The “Find Compounds by Molecular Feature” function of the software was used to identify mucin glycan species within 20 ppm of theoretical masses. Compound abundances were expressed as volume in ion counts that corresponded to absolute abundances of the compounds in each sample. 1HexNAc-1NeuAc, 1HexNAc-1Hex-NeuAc, 2HexNAc-1NeuAc, 2HexNAc-1Hex-1Fuc, 2HexNAc-1Hex-1NeuAc, 2HexNAc-1Hex-2Fuc, 3HexNAc-1Hex-1Fuc, 2HexNAc-1Hex-1Fuc-1NeuAc, 2HexNAc-1Hex-1Fuc-2NeuAc, 3HexNAc-1Hex-2NeuAc and 3HexNAc-1Hex-2Fuc-1NeuAc were monitored as they are discriminitively human colonic glycans. Robbe et al. (2004) Rapid Communications in Mass Spectrometry 18(4): 412-420.\nStatistical analysis. Multiple t-tests were carried out with the Holm-Sidak correction in Graph Pad Prism 7 (GraphPad Software, La Jolla, Calif. USA). Pearson and Spearman correlational tests and principle component analyses were performed in R (v 3.4.2). Adonis test was carried out using a weighted UNIFRAC distance matrix (Lozupone et al 2011) in QIIME 1.9.1 (Caporaso et al 2010). […] The total oligosaccharide (OS) compositions of the samples were determined by the untargeted approach of nano-HPLC-Chip-TOF. The compounds were characterized using previously published libraries. Thomsson et al. (2002) Glycobiology 12(1): 1-14; Robbe et al. (2004) Rapid Communications in Mass Spectrometry 18(4): 412-420; Matamoros et al. (2013) Trends in Microbiology 21(4): 167-173; Karav et al. (2016) Applied and Environ. Micro. 82(12): 3622-3630. Among these compositions, free HMO (Frese et al. (2017) mSphere 2(6): e00501-e00517) and mucin OS were found in the infant fecal glycome. The degradation of human colonic mucin glycans by different gut microbiome profiles was determined as the difference between a B. infantis-dominated microbiome and microbiomes with more abundant mucolytic taxa, such as Bacteroidaceae. As target molecules, 1HexNAc-1NeuAc, 1HexNAc-1Hex-NeuAc, 2HexNAc-1NeuAc, 2HexNAc-1Hex-1Fuc, 2HexNAc-1Hex-1NeuAc, 2HexNAc-1 Hex-2Fuc, 3HexNAc-1Hex-1Fuc, 2HexNAc-1Hex-1Fuc-1NeuAc, 2HexNAc-1Hex-1Fuc-2NeuAc, 3HexNAc-1Hex-2NeuAc and 3HexNAc-1Hex-2Fuc-1NeuAc, were selected as typical human colonic mucin glycans, as shown by Robbe et al. (2004) Rapid Communications in Mass Spectrometry 18(4): 412-420."}, "diabetes mellitus": {"system": "diabetes mellitus", "experiment": "Prevention of type 1 diabetes in NOD mice", "format": "in vivo, mouse", "details": "compared to control mice", "excerpt": "Germ-free non-obese diabetic (NOD) mouse pups are weaned 3 weeks after birth and put on a polysaccharide-free diet that contains Vitamin A. As soon as the mouse pups are weaned, they are gavaged with a dysbiotic (no Bifidobacterium sp. and high proteobacteria) human infant microbiome at Day 1 of the experiment. The mice are divided into 4 groups: control, control plus LNnT, B. infantis, and B. infantis plus LNnT. Mice are given the composition for 21 days. All Groups receive B. infantis or a placebo every 3 days by gavage; the LNnT or placebo is added to the drinking water. Additional mice are divided into 2 groups These groups are gavaged with a healthy human infant microbiome (Bifidobacterium species) at day 21 of the experiment. The mice are then either fed placebo or LNnT in their drinking and receive vitamin A in their chow. Mice are monitored for diabetes with weekly tail vein blood glucose measurements and euthanized following two consecutive daily readings of >[…]. […] Plasma is evaluated for cytokines and innate immune factors. Fecal samples are taken every day and evaluated using qPCR and/or 16s and/or shotgun sequencing for microbial colonization. […]"}}, "data": [{"substance": "Bifidobacterium longum subsp. infantis EVC001 [B. infantis EVC001]", "values": [{"measurement": "Number of total OS structures (including isomers and anomers)", "setting": "[1]; infant feces, FIG. 2A", "result": "360.44±102.52"}, {"measurement": "Number of colonic mucin-derived O-glycan structures", "setting": "[1]; infant feces, FIG. 2B", "result": "6.33 (±2.24)"}, {"measurement": "Relative abundance of colonic mucin-derived O-glycans, number of structures", "setting": "[1]; infant feces, FIG. 2C", "result": "1.78%±0.385"}, {"measurement": "Colonic mucin-derived O-glycans, proportion of the total OS profile", "setting": "[1]; infant feces, FIG. 2D", "result": "1.68±1.12", "unit": "%"}, {"measurement": "Glycan 1_0_0_1 (1HexNAc-1NeuAc) Log10 Volume EVC001-fed [Mean (+/− SD)]", "setting": "[1]; infant feces, neutral mass 512", "result": 5.39}, {"measurement": "Glycan 1_1_0_1 (1HexNAc-1Hex-1NeuAc) Log10 Volume EVC001-fed [Mean (+/− SD)]", "setting": "[1]; infant feces, neutral mass 675", "result": 4.01}, {"measurement": "Glycan 2_0_0_1 (2HexNAc-1NeuAc) Log10 Volume EVC001-fed [Mean (+/− SD)]", "setting": "[1]; infant feces, neutral mass 716", "result": 0}, {"measurement": "Glycan 2_1_1_0 (2HexNAc-1Hex-1Fuc) Log10 Volume EVC001-fed [Mean (+/− SD)]", "setting": "[1]; infant feces, neutral mass 735", "result": 0}, {"measurement": "Glycan 2_1_0_1 (2HexNAc-1Hex-1NeuAc) Log10 Volume EVC001-fed [Mean (+/− SD)]", "setting": "[1]; infant feces, neutral mass 878", "result": 5.56}, {"measurement": "Glycan 2_1_2_0 (2HexNAc-1Hex-2Fuc) Log10 Volume EVC001-fed [Mean (+/− SD)]", "setting": "[1]; infant feces, neutral mass 879", "result": 5.48}, {"measurement": "Glycan 3_1_1_0 (3HexNAc-1Hex-1Fuc) Log10 Volume EVC001-fed [Mean (+/− SD)]", "setting": "[1]; infant feces, neutral mass 936", "result": 5.43}, {"measurement": "Glycan 2_1_1_1 (2HexNAc-1Hex-1Fuc-1NeuAc) Log10 Volume EVC001-fed [Mean (+/− SD)]", "setting": "[1]; infant feces, neutral mass 1024", "result": 5.38}, {"measurement": "Glycan 2_1_1_2 (2HexNAc-1Hex-1Fuc-2NeuAc) Log10 Volume EVC001-fed [Mean (+/− SD)]", "setting": "[1]; infant feces, neutral mass 1315", "result": 6.68}, {"measurement": "Glycan 3_1_0_2 (3HexNAc-1Hex-2NeuAc) Log10 Volume EVC001-fed [Mean (+/− SD)]", "setting": "[1]; infant feces, neutral mass 1372", "result": 5.47}, {"measurement": "Glycan 3_1_2_1 (3HexNAc-1Hex-2Fuc-1NeuAc) Log10 Volume EVC001-fed [Mean (+/− SD)]", "setting": "[1]; infant feces, neutral mass 1373", "result": 6.12}, {"measurement": "Mucin degradation", "setting": "[1]; supplemented infants compared to the control group", "result": "significantly less"}, {"measurement": "Incidence of the development of diabetes mellitus", "setting": "diabetes mellitus", "result": "reduces"}]}]}
